ChEMBL document CHEMBL5113518, “Discovery of a Novel G-Quadruplex and Histone Deacetylase (HDAC) Dual-Targeting Agent for the Treatment of Triple-Negative Breast Cancer” (J Med Chem, 2022)
Activity calls are given as the source filed them. No cut-off for these calls is given here.

What was measured:
[1] = Toxicity in BALB/c-nu/nu mouse assessed as toxic sign at 2.5 mg/kg, ip measured for 31 days; assay type: organism-based; conditions: in vivo, 744 h, time 31 day
MDA-MB-231 [2] = test: Induction of cell cycle arrest in human MDA-MB-231 cells assessed as accumulation at G2/M phase at 2.5 uM measured for 6 to 48 hrs; assay type: functional, cell-based; conditions: time 6-48 hrs
Quadruplex DNA [3] = test: Binding affinity to 5' FAM and 3' TAMRA-labeled c-myc G4-quadruplex DNA HTG21 (unknown origin) assessed as change in melting temperature by fluorescence resonance energy transfer assay; assay type: nucleic-acid assay
Histone deacetylase 1 = Histone deacetylase 1 (Homo sapiens, UniProt Q13547); test: Inhibition of full length recombinant C-terminal GST-tagged human HDAC1 expressed in baculovirus infected Sf9 insect cells incubated for 50 mins by Glo- luminescence assay
Histone deacetylase 1, sequence (Q13547 whole entry): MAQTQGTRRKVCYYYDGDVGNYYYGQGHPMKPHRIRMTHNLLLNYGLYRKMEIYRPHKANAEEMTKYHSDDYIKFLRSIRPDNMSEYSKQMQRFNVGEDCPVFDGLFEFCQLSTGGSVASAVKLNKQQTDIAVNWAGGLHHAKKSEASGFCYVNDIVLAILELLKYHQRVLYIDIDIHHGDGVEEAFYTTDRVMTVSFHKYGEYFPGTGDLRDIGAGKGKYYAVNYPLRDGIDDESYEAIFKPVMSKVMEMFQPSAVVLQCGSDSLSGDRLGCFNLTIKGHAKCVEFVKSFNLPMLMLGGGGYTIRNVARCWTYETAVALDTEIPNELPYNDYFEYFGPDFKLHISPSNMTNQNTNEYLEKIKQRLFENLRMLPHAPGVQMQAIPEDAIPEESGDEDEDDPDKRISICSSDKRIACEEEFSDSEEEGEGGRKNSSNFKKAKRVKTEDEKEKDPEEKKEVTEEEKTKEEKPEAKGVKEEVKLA

MDA-MB-231 [4] = test: Induction of DNA damage in human MDA-MB-231 cells at 1.25 to 5 uM assessed as increase in gamma-H2AX level and measured for 48 hrs by DAPI staining method; assay type: functional, cell-based; conditions: dose 1.25-5 µM
MDA-MB-231 [5] = test: Antitumor activity against human MDA-MB-231 cells xenografted in BALB/c-nu/nu mouse assessed as reduction in tumor volume at 2.5 mg/kg, ip measured for 31 days; assay type: functional, organism-based; conditions: time 31.0 day
MDA-MB-231 [6] = test: Inhibition of colony formation in human MDA-MB-231 cells measured for 7 days by crystal violet staining based assay; assay type: functional, cell-based; conditions: dose 2.5 µM, time 7.0 day, DDE = dose-dependent effect
MDA-MB-231 [7] = test: Antitumor activity against human MDA-MB-231 cells xenografted in BALB/c-nu/nu mouse assessed as tumor growth inhibition at 2.5 mg/kg, ip measured for 31 days; assay type: functional; conditions: MDA-MB-231, 744 h, time 31 day, read-out: TGI
Quadruplex DNA [8] = test: Binding affinity to […]' FAM-labeled c-myc G4-quadruplex DNA Pu22 (unknown origin) by fluorescence quench assay; assay type: nucleic-acid assay
Histone deacetylase 8 = molecular target: T1, Histone deacetylase 8 (Homo sapiens, UniProt Q9BY41); test: Inhibition of full length recombinant N-terminal GST-tagged human HDAC8 expressed in baculovirus infected Sf9 insect cells incubated for 50 mins by Glo- luminescence assay
T1 sequence (Q9BY41 whole entry): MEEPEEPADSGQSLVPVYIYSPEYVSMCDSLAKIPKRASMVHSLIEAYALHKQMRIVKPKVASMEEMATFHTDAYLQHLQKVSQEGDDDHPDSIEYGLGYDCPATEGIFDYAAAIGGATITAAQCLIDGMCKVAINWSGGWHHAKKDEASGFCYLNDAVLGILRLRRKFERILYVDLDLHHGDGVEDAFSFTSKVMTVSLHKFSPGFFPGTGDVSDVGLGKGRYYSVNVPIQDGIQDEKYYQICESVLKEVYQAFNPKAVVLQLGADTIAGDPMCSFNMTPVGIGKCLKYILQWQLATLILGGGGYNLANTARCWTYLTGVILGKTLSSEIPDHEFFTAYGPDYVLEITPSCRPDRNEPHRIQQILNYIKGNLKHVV

Quadruplex DNA [9] = test: Binding affinity to 5' FAM-labeled c-myc G4-quadruplex DNA Pu22 (unknown origin) assessed as dissociation constant by surface plasmon resonance assay; assay type: nucleic-acid assay
Quadruplex DNA [10] = conditions: dose 1.0 µM
Description: Binding affinity to 5' FAM and 3' TAMRA-labeled c-myc G4-quadruplex DNA Pu22 (unknown origin) assessed as change in melting temperature at 1 uM by fluorescence resonance energy transfer assay

Quadruplex DNA [11] = test: Binding affinity to 5' FAM and 3' TAMRA-labeled c-myc G4-quadruplex DNA duplex (unknown origin) assessed as change in melting temperature by fluorescence resonance energy transfer assay; assay type: nucleic-acid assay
SUM-159-PT [12] = test: Cytotoxicity against human SUM159PT cells harboring wild type BRCA1 and wild type BRCA2 assessed as reduction in cell viability; assay type: functional, cell-based
MDA-MB-231 [13] = test: Effect on metabolism in human MDA-MB-231 cells assessed as reduction in glycolysis at 2.5 uM measured after 48 hrs by seahorse XF24 analysis; assay type: functional, cell-based
[14] = Inhibition of full length recombinant N-terminal GST-tagged human HDAC11 expressed in baculovirus infected Sf9 insect cells incubated for 50 mins by Glo- luminescence assay; assay type: cell-based
Quadruplex DNA [15] = test: Binding affinity to 5' FAM-labeled […] (unknown origin) assessed as dissociation constant by surface plasmon resonance assay; assay type: nucleic-acid assay
[16] = molecular target: Histone deacetylase (Homo sapiens) (UniProt Q13547+O15379+Q9UBN7+Q92769+Q9UQL6+Q8WUI4+Q9BY41+Q96DB2+P56524+Q9UKV0+Q969S8); test: Inhibition of HDAC in human SUM159PT cells assessed as increase in acetylated alpha-tubulin level at 1.25 to 5 uM by Western blot analysis; assay type: cell-based; conditions: dose 1.25-5 µM
Histone deacetylase 4 = Histone deacetylase 4 (Homo sapiens, UniProt P56524); test: Inhibition of full length recombinant N-terminal GST-tagged human HDAC4 (612 to end residues)expressed in baculovirus infected Sf9 insect cells incubated for 50 mins by Glo- luminescence assay
Histone deacetylase 4, sequence (P56524 whole entry): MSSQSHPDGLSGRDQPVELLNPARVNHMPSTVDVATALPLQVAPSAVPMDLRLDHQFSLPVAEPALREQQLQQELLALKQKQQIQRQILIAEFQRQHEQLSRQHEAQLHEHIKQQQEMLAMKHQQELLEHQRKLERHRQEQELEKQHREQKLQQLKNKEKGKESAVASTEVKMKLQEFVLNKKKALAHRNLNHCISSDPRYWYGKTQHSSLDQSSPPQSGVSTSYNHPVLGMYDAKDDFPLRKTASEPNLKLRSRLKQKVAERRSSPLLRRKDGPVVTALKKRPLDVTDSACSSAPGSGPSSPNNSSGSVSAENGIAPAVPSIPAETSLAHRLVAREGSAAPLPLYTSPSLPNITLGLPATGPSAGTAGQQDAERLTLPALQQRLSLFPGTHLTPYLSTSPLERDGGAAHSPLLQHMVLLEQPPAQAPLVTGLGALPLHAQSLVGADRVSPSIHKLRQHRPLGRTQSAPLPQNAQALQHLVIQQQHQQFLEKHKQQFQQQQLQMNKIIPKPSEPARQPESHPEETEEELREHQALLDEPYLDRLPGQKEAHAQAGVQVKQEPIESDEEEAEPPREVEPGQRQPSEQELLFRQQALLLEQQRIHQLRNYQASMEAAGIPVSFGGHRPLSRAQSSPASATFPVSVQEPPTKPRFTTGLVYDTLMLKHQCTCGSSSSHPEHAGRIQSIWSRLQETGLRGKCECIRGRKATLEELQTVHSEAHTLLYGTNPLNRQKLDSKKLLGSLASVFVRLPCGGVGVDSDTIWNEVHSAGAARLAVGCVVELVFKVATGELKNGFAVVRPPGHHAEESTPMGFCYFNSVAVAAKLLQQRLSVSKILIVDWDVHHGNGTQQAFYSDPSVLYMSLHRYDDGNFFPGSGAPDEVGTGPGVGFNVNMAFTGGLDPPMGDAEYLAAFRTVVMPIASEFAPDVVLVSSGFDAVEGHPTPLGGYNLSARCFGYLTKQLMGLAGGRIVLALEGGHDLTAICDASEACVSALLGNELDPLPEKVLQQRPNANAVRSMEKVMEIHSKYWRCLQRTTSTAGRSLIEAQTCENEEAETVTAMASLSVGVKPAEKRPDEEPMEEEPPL

SUM-159-PT [17] = test: Inhibition of colony formation in human SUM159PT cells measured for 7 days by crystal violet staining based assay; assay type: functional, cell-based; conditions: dose 2.5 µM, time 7.0 day, DDE = dose-dependent effect
MDA-MB-231 [18] = test: Inhibition of cell invasion in human MDA-MB-231 cells at 2.5 uM incubated for 48 hrs by crystal violet staining based transwell assay; assay type: functional
HeLa = test: Potency index, ratio of SAHA IC50 to test compound IC50 for inhibition of HDAC in human HeLa nuclear extract
MDA-MB-231 [19] = test: Antitumor activity against human MDA-MB-231 cells xenografted in BALB/c-nu/nu mouse assessed as reduction in tumor growth at 2.5 mg/kg, ip measured for 31 days; assay type: functional, organism-based; conditions: time 31.0 day
[20] = Stabilization of DNA Pu22 (unknown origin ) single strand assessed as G4-quadruplex formation in absence of potassium ions by spectrum based circular dichroism analysis; conditions: dose <= 30.0 µM; DDE = dose-dependent effect
[21] = Stabilization of DNA Pu22 (unknown origin ) single strand assessed as G4-quadruplex formation up to 30 uM in presence of potassium ions by spectrum based circular dichroism analysis
Quadruplex DNA [22] = test: Binding affinity to 5' FAM and 3' TAMRA-labeled […] (unknown origin) assessed as change in melting temperature by fluorescence resonance energy transfer assay; assay type: nucleic-acid assay
BT-549 [23] = test: Cytotoxicity against human BT-549 cells harboring wild type BRCA1 and wild type BRCA2 assessed as reduction in cell viability; assay type: functional, cell-based
Histone deacetylase [24] = test: Inhibition of HDAC in human HeLa nuclear extract incubated for 30 mins by fluorescence-based Glo-luminescence assay; assay type: cell-based
Histone deacetylase [25] = test: Inhibition of HDAC in human MDA-MB-231 cells incubated for 45 mins by luminescence assay; assay type: cell-based
[26] = Toxicity in BALB/c-nu/nu mouse at 2.5 mg/kg, ip measured for 31 days; assay type: organism-based; conditions: in vivo, 744 h, time 31 day
MDA-MB-231 [27] = test: Cytotoxicity against human MDA-MB-231 cells harboring wild type BRCA1 and wild BRCA2 assessed as reduction in cell viability; assay type: functional, cell-based
BT-549 [28] = test: Induction of DNA damage in human BT-549 at 1.25 to 5 uM assessed as increase in gamma-H2AX level and measured for 48 hrs by DAPI staining method; assay type: functional, cell-based; conditions: dose 1.25-5 µM

ΔTm (Quadruplex DNA [3]): 2 °C
IC50 (Histone deacetylase 1): 1260 nM
DC50 (Quadruplex DNA [8]): 100 nM
IC50 (Histone deacetylase 8): 30 nM
Kd (Quadruplex DNA [9]): 1600 nM
ΔTm (Quadruplex DNA [10]): 16.7 °C
ΔTm (Quadruplex DNA [11]): 0.1 °C
Kd (Quadruplex DNA [15]): 4500 nM
inhibition [16]: Active
IC50 (Histone deacetylase 4): 2640 nM
Activity [20]: Dde
Activity [21]: Active
ΔTm (Quadruplex DNA [22]): 1.2 °C
IC50 (Histone deacetylase [24]): 1900 nM
IC50 (Histone deacetylase [25]): 1100 nM
SMILES: CN(C)CCCNC(=O)c1ccc(/C=C2\CCn3c2nc2cc(N4CCN(CCCCCCCC(=O)NO)CC4)c(F)cc2c3=O)cc1.Cl
Activity [1]: Non-Toxic
Activity (MDA-MB-231 [2]): Active
Activity (MDA-MB-231 [4]): Active
Activity (MDA-MB-231 [5]): Active
inhibition (MDA-MB-231 [6]): Dde
inhibition in vivo at 2.5 mg/kg (MDA-MB-231 [7]): 69%
IC50 (SUM-159-PT [12]): 7400 nM
Activity (MDA-MB-231 [13]): Active
IC50 [14]: 1380 nM
inhibition (SUM-159-PT [17]): Dde
inhibition (MDA-MB-231 [18]): Active
Ratio IC50 (HeLa): 20
Activity (MDA-MB-231 [19]): Active
IC50 (BT-549 [23]): 6500 nM
Activity [26]: Non-Toxic
IC50 (MDA-MB-231 [27]): 4100 nM
Activity (BT-549 [28]): Active
